From patent US12564596B2, “Agents and methods for modulating pathogen activity” (Griffith University, priority 2018, dated 2026)

Tests used:
[1] = system: N. gonorrhoeae strains; test: Well diffusion assay in the absence of human cells; design: species or system Neisseria gonorrhoeae; conditions: GC-agar, overnight 37° C.; 100 μM to 100 μM [sic]
Description: (§1) FIG. 22 is a graphical representation showing the effect of carbamazepine on N. gonorrhoeae in the absence of human cells. Well diffusion assays were performed in which N. gonorrhoeae strains were spread uniformly across the surface of GC-agar plates at a culture density of 10^7 bacterial per mL. Wells were then punctured within the agar surface to which carbamazepine (Cz; […], as noted), 0.2 μg/mL ceftriaxone (Cfx), 10 μg/mL ciprofloxacin (Cip), or 1% DMSO (vehicle control) were added. […] For agar plates in which a ZOI was not visible, data were recorded as the diameter of the well (6 mm), as indicated. Assays were performed in triplicate on 3 separate occasions. Data are presented as the mean and variance of the average values obtained for each assay; statistical significance was determined using a Student's t-test. […] This is consistent with a CR3-dependent, host-mediated mechanism of killing.
as §1, with “23” for “22”, “methyldopa” for “carbamazepine”, “methyldopa (Md;” for “carbamazepine (Cz;”
FIG. 24 is a graphical representation showing the effect of flufenamic acid on N. gonorrhoeae in the absence of human cells. Well diffusion assays were performed in which N. gonorrhoeae strains were spread uniformly across the surface of GC-agar plates at a culture density of 10^7 bacterial per mL. Wells were then punctured within the agar surface to which flufenamic acid ([…], as noted), 0.2 μg/mL ceftriaxone, 10 μg/mL ciprofloxacin, or 1% DMSO (vehicle control) were added. […] For agar plates in which a ZOI was not visible, data were recorded as the diameter of the well (6 mm), as indicated. Assays were performed in triplicate on 3 separate occasions. Data are presented as the mean and variance of the average values obtained for each assay; statistical significance was determined using a Student's t-test.

[2] = system: N. gonorrhoeae strain MS11gfp adherence to CHO-CR3 cells; test: Fluorometric adherence assay, gonococci to CHO cells; assay type: cell-based, Neisseria gonorrhoeae; conditions: 1 h post-challenge
Description: The ability of carbamazepine to block adherence of N. gonorrhoeae strain MS11gfp to CHO-neo or CHO-CR3 cells was evaluated using a fluorometric adherence assay. Assays were performed essentially as described by Jen et al (2013, PLoS Pathog. 9(5):e1003377). In this regard, CHO-neo or CHO-CR3 cells were seeded to a 96-well plate and allowed to grow to confluence. MS11gfp gonococci were then used to challenge (1 h) CHO cells simultaneously with, or without, various concentrations of carbamazepine (as noted). Fluorescence (485/528 nm) intensity, corresponding to bacterial adherence, was recorded using a Synergy HT Multi-mode Microplate Reader (BioTek Instruments, Winooski, VT USA). The assay was performed in triplicate on 3 separate occasions. A Kruskal-Wallis k-sample analysis of variance was used to determine the statistical significance of the calculated mean of bacterial adherence.
The ability of the compounds, or negative controls to block adherence of N. gonorrhoeae strain MS11gfp to PEX cells, CHO-CR3, or CHO-neo cells was evaluated using a fluorometric microtiter plate assay. Assays were performed essentially as described by Jen et al. (2013, Plos Pathog 9(5): e1003377). In this regard, GFP-expressing gonococci were used to challenge (1 h) PEX or CHO cells immediately following compound addition. Fluorescence (485/528 nm) intensity, corresponding to bacterial adherence, was recorded using a Synergy HT Multi-mode Microplate Reader (BioTek Instruments, Winooski, VT USA). Blank wells, devoid of PEX or CHO cells, also were inoculated with bacteria and served as a control for non-specific binding. The assay was performed in triplicate on 3 separate occasions. A Student's t-test was used to determine the statistical significance of the calculated mean of bacterial adherence.

## NC(=O)N1c2ccccc2C=Cc2ccccc21 [carbamazepine, 5H-dibenzo[b,f]azepine-5-carboxamide]
[1]
  effect on N. gonorrhoeae in the absence of human cells (zone of inhibition): no effect
[2]; 1 μM
  gonococcal adherence to CHO-CR3 cells compared with CHO-neo cells: not significantly different than that recorded for CHO-neo cells
[2]
  gonococcal adherence to CHO-CR3, but not CHO-neo, cells with increasing concentrations: dose-dependent decrease
